Results taken from ChEMBL document CHEMBL3714729, “Heterocyclic compounds for the inhibition of pask” (2012).

These molecules were tested against PAS domain-containing serine/threonine-protein kinase (Homo sapiens, UniProt Q96RG2) (assay: Inhibition of human recombinant PASK using Ulight-peptide substrate incubated for 2 hrs by TR-FRET assay).
Sequence of PAS domain-containing serine/threonine-protein kinase (Q96RG2 whole entry, the tested form may be a part): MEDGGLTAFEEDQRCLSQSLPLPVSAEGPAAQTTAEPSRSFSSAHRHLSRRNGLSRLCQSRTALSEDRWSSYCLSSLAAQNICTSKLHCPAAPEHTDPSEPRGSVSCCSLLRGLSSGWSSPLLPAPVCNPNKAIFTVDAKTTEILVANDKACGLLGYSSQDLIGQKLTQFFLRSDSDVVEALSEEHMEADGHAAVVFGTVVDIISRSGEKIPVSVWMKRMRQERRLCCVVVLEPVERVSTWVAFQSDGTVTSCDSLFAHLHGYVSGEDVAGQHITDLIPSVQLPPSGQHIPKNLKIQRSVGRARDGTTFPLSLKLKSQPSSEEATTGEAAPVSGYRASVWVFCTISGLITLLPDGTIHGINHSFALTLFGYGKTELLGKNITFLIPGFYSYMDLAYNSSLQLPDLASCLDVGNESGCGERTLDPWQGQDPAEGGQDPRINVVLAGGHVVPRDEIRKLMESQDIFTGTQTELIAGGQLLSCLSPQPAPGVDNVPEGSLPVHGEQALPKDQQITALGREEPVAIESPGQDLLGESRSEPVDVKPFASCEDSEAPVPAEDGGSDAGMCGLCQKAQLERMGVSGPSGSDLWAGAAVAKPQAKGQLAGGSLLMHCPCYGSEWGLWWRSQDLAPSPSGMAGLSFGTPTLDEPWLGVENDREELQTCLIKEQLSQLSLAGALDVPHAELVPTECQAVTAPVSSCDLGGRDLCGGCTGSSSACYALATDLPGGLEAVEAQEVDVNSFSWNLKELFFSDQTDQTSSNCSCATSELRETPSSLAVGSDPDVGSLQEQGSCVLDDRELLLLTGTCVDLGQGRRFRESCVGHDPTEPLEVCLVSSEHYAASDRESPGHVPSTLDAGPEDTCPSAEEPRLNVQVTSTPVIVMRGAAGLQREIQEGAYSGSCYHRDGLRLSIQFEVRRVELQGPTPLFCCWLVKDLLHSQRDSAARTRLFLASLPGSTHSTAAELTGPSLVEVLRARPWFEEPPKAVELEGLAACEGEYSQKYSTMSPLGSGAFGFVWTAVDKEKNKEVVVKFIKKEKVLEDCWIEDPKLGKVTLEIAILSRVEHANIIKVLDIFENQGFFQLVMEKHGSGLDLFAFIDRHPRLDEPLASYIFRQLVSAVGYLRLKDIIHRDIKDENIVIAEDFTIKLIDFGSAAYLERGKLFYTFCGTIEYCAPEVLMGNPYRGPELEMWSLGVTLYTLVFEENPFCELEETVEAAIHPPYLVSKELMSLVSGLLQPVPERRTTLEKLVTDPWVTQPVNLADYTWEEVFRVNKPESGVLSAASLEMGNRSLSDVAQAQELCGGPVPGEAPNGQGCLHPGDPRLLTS

Structure (SMILES) | IC50 [µM]
Cc1nn2c(=O)cc(-c3ccc4c(c3C)OCO4)[nH]c2c1-c1ccccn1 | ≤ 10
CCCNC(=O)c1c(O)nn2c(=O)cc(-c3ccc4[nH]nnc4c3)[nH]c12 | ≤ 10
O=c1cc(-c2ccc(Cl)cc2Cl)[nH]c2c(-c3ccccn3)cnn12 | ≤ 10
O=c1cc(-c2ccc(-c3nnco3)cc2)[nH]c2c(-c3ccccn3)cnn12 | ≤ 10
Nc1nn2c(=O)cc(-c3cccc(F)c3)[nH]c2c1-c1ccccn1 | ≤ 10
Cc1n[nH]c2ccc(-c3cc(=O)n4ncc(-c5ccccn5)c4[nH]3)cc12 | ≤ 10
Cc1nn2c(=O)cc(-c3ccc4[nH]nnc4c3)[nH]c2c1-c1ccccc1 | ≤ 10
O=c1cc(-c2ccc3c(c2)OCCO3)[nH]c2c(-c3cccnc3)c(O)nn12 | ≤ 10
Cc1nn2c(=O)cc(-c3ccc4c(c3OC(C)C)OCO4)[nH]c2c1-c1ccccn1 | ≤ 10
O=c1cc(-c2ccccc2)[nH]c2c(-c3ccc(O)nc3)cnn12 | ≤ 10
COc1cc(OC)cc(-c2cc(=O)n3ncc(-c4ccccn4)c3[nH]2)c1 | ≤ 10
Cc1c(-c2cc(=O)n3ncc(-c4ccccn4)c3[nH]2)ccc2c1OCO2 | ≤ 10
O=c1cc(-c2ccccc2)[nH]c2c(-c3cccnc3)c(O)nn12 | ≤ 10
CS(=O)(=O)c1ccc(-c2cc(=O)n3ncc(-c4ccccn4)c3[nH]2)cc1 | ≤ 10
O=c1cc(-c2ccc3[nH]nnc3c2)[nH]c2c(-c3ccccn3)cnn12 | ≤ 10
Cc1nn2c(=O)cc(-c3ccc4[nH]nnc4c3C)[nH]c2c1-c1ccccn1 | ≤ 10
O=c1cc(-c2ccc3c(c2)OCCO3)[nH]c2c(-c3ccc(F)cc3)cnn12 | ≤ 10
COc1ccc(-c2cnn3c(=O)cc(-c4ccc5c(c4)OCCO5)[nH]c23)cc1 | ≤ 10
Cn1nnc2cc(-c3cc(=O)n4nc(N)c(-c5ccccn5)c4[nH]3)ccc21 | ≤ 10
Nc1nn2c(=O)cc(-c3ccc4occc4c3)[nH]c2c1-c1ccccn1 | ≤ 10
CCc1nn2c(=O)cc(-c3ccc4[nH]ncc4c3)[nH]c2c1-c1ccccn1 | ≤ 10
COc1c(-c2cc(=O)n3nc(C)c(-c4ccccn4)c3[nH]2)ccc2[nH]nnc12 | ≤ 10
COc1ccc(-c2c(C)nn3c(=O)cc(-c4ccc5ncccc5c4)[nH]c23)cc1 | ≤ 10

Structure (SMILES) | IC50 [µM]
O=c1cc(-c2ccc(Cl)cc2)[nH]c2c(Cc3ccccc3)cnn12 | ≤ 10
Cc1cc2[nH]nnc2cc1-c1cc(=O)n2nc(O)c(-c3ccccn3)c2[nH]1 | ≤ 10
CNC(=O)Oc1ccc(-c2cc(=O)n3ncc(-c4ccccn4)c3[nH]2)cc1 | ≤ 10
N#Cc1c(O)nn2c(=O)cc(-c3ccc(Cl)cc3)[nH]c12 | ≤ 10
Cc1ccc(-c2cc(=O)n3ncc(-c4ccccn4)c3[nH]2)cc1 | ≤ 10
Cc1nn2c(=O)cc(-c3ccc4[nH]nnc4c3)[nH]c2c1-c1ccccn1 | ≤ 10
O=C(O)c1cnn2c(=O)cc(-c3ccc4c(c3)OCCO4)[nH]c12 | ≤ 10
Cc1nn2c(=O)cc(-c3ccc4[nH]ccc4c3)[nH]c2c1-c1ccccc1 | ≤ 10
O=c1cc(-c2ccc3c(c2)OCO3)[nH]c2c(Cc3ccccn3)cnn12 | ≤ 10
O=c1cc(-c2cccc(F)c2)[nH]c2c(-c3ccccn3)cnn12 | ≤ 10
Cc1cc2[nH]nnc2cc1-c1cc(=O)n2ncc(-c3ccccn3)c2[nH]1 | ≤ 10
Cc1nn2c(=O)cc(-c3ccc4[nH]nnc4c3)[nH]c2c1-c1ccc(Cl)cc1 | ≤ 10
O=c1cc(-c2ccc3[nH]nnc3c2)[nH]c2c(Cc3ccccc3)c(O)nn12 | ≤ 10
Cc1c(-c2cc(=O)n3nc(N)c(-c4ccccn4)c3[nH]2)ccc2[nH]nnc12 | ≤ 10
CC(=O)Nc1nn2c(=O)cc(-c3ccc4[nH]ncc4c3)[nH]c2c1-c1ccccn1 | ≤ 10
CCCNC(=O)c1c(N)nn2c(=O)cc(-c3ccc4c(c3)OCO4)[nH]c12 | ≤ 10
CCc1nn2c(=O)cc(-c3ccc4[nH]nnc4c3)[nH]c2c1-c1ccccc1 | ≤ 10
Nc1nn2c(=O)cc(-c3ccc(C(F)(F)F)cc3)[nH]c2c1-c1ccccn1 | ≤ 10
Cc1coc2ccc(-c3cc(=O)n4nc(N)c(-c5ccccn5)c4[nH]3)cc12 | ≤ 10
Cc1cc2cc(-c3cc(=O)n4ncc(-c5ccccn5)c4[nH]3)ccc2o1 | ≤ 10
CCn1ncc2cc(-c3cc(=O)n4nc(NC(C)=O)c(-c5ccccn5)c4[nH]3)ccc21 | ≤ 10
COc1c(-c2cc(=O)n3ncc(-c4ccccn4)c3[nH]2)ccc2c1OCO2 | ≤ 10
COc1nn2c(=O)cc(-c3ccc4c(c3)OCO4)[nH]c2c1-c1ccccn1 | ≤ 10

Structure (SMILES) | IC50 [µM]
Cc1c(-c2cc(=O)n3nc(N)c(-c4ccccn4)c3[nH]2)ccc2c1OCO2 | ≤ 10
COc1ccc(-c2cnn3c(=O)cc(-c4ccccc4)[nH]c23)cn1 | ≤ 10
CCCc1cnn2c(=O)cc(-c3ccc4c(c3)OCO4)[nH]c12 | ≤ 10
Cc1cc2cc(-c3cc(=O)n4nc(N)c(-c5ccccn5)c4[nH]3)ccc2o1 | ≤ 10
Cc1cc2[nH]nnc2cc1-c1cc(=O)n2nc(N)c(-c3ccccn3)c2[nH]1 | ≤ 10
COc1cc2[nH]nnc2cc1-c1cc(=O)n2nc(O)c(-c3ccccn3)c2[nH]1 | ≤ 10
Cc1nn2c(=O)cc(-c3ccc4[nH]nnc4c3)[nH]c2c1Cc1ccccc1 | ≤ 10
Cc1c(-c2cc(=O)n3nc(O)c(-c4ccccn4)c3[nH]2)ccc2[nH]nnc12 | ≤ 10
O=c1cc(-c2ccc(F)cc2F)[nH]c2c(-c3ccccn3)cnn12 | ≤ 10
O=c1cc(-c2ccccc2)[nH]c2c(-c3ccc(N4CCCCC4)nc3)cnn12 | ≥ 10
O=c1cc(-c2ccc3[nH]nnc3c2)[nH]c2c(-c3ccccc3)c(O)nn12 | ≤ 10
CC(=O)Nc1nn2c(=O)cc(-c3ccc4[nH]nnc4c3)[nH]c2c1-c1ccccn1 | ≤ 10
Nc1nn2c(c1-c1ccccn1)CC(c1ccc3c(c1)OC(F)(F)O3)=CC2=O | ≤ 10
COc1cc(Cl)ccc1-c1cc(=O)n2ncc(-c3ccccn3)c2[nH]1 | ≤ 10
COc1c(-c2cc(=O)n3nc(N)c(-c4ccccn4)c3[nH]2)ccc2[nH]nnc12 | ≤ 10
Cc1nn2c(=O)cc(-c3ccc4ncccc4c3)[nH]c2c1-c1ccc(F)cc1 | ≤ 10
Nc1nn2c(=O)cc(-c3ccc4[nH]nnc4c3)[nH]c2c1Cc1ccccc1 | ≤ 10
O=c1cc(-c2ccc3c(c2)OCCO3)[nH]c2c(-c3ccc(Br)cc3)cnn12 | ≤ 10
O=C(c1cnn2c(=O)cc(-c3ccc4c(c3)OCCO4)[nH]c12)N1CCCC1 | ≤ 10
Cc1n[nH]c2ccc(-c3cc(=O)n4nc(N)c(-c5ccccn5)c4[nH]3)cc12 | ≤ 10
O=c1cc(-c2ccc3[nH]nnc3c2)[nH]c2c(Cc3ccccc3)cnn12 | ≤ 10
COc1ccc(-c2c(C)nn3c(=O)cc(-c4ccc5c(c4)OCCO5)[nH]c23)cc1 | ≤ 10
Cn1ncc2cc(-c3cc(=O)n4nc(N)c(-c5ccccn5)c4[nH]3)ccc21 | ≤ 10

Structure (SMILES) | IC50 [µM]
CNC(=O)Oc1ccc(-c2cc(=O)n3nc(C)c(-c4ccccn4)c3[nH]2)cc1 | ≤ 10
Cc1c(-c2cc(=O)n3nc(O)c(-c4ccccn4)c3[nH]2)ccc2c1OCO2 | ≤ 10
COc1c(-c2cc(=O)n3nc(O)c(-c4ccccn4)c3[nH]2)ccc2[nH]nnc12 | ≤ 10
CCc1nn2c(=O)cc(-c3ccc4c(cnn4C)c3)[nH]c2c1-c1ccccn1 | ≤ 10
O=c1cc(-c2ccc(Cl)cc2F)[nH]c2c(-c3ccccn3)cnn12 | ≤ 10
Cc1nn2c(=O)cc(-c3ccc(O)cc3)[nH]c2c1-c1ccccc1 | ≤ 10
CCC(=O)Nc1nn2c(=O)cc(-c3ccc4c(c3)OCO4)[nH]c2c1-c1ccccn1 | ≤ 10
Nc1nn2c(=O)cc(-c3ccc(F)cc3F)[nH]c2c1-c1ccccn1 | ≤ 10
CCCNC(=O)c1c(N)nn2c(=O)cc(-c3ccc4c(c3)OCCO4)[nH]c12 | ≤ 10
O=c1cc(-c2ccc(C(F)(F)F)cc2)[nH]c2c(-c3ccccn3)cnn12 | ≤ 10
COc1nn2c(=O)cc(-c3ccc(Cl)cc3)[nH]c2c1C#N | ≤ 10
CC(C)Oc1c(-c2cc(=O)n3ncc(-c4ccccn4)c3[nH]2)ccc2c1OCO2 | ≤ 10
Cn1ncc2cc(-c3cc(=O)n4ncc(-c5ccccn5)c4[nH]3)ccc21 | ≤ 10
Nc1nn2c(=O)cc(-c3cc4ccccc4o3)[nH]c2c1-c1ccccn1 | ≤ 10
O=c1cc(-c2ccc3c(c2)OCCO3)[nH]c2c(-c3cccc(Cl)c3)cnn12 | ≤ 10
O=c1cc(-c2ccc3c(c2)OCCO3)[nH]c2c(-c3ccc(N4CCOCC4)nc3)cnn12 | ≤ 10
Cn1nnc2cc(-c3cc(=O)n4ncc(-c5ccccn5)c4[nH]3)ccc21 | ≤ 10
Nc1nn2c(=O)cc(-c3ccc(Cl)c(Cl)c3)[nH]c2c1-c1ccccn1 | ≤ 10
CC(C)C(=O)Nc1nn2c(=O)cc(-c3ccc4c(c3)OCO4)[nH]c2c1-c1ccccn1 | ≤ 10
CCc1nn2c(=O)cc(-c3ccc(Cl)cc3)[nH]c2c1-c1ccccn1 | ≤ 10
CCC(=O)Nc1nn2c(=O)cc(-c3ccc4nn[nH]c4c3)[nH]c2c1-c1ccccn1 | ≤ 10

Each molecule was assayed against Casein kinase II subunit alpha' (Homo sapiens, UniProt P19784) (assay: Inhibition of GST-tagged full-length purified human CK2a2 using RRRDDDSDDD substrate incubated for 120 mins in presence of [33P]ATP by scintillation counting based biochemical assay).
Sequence of Casein kinase II subunit alpha' (P19784 whole entry): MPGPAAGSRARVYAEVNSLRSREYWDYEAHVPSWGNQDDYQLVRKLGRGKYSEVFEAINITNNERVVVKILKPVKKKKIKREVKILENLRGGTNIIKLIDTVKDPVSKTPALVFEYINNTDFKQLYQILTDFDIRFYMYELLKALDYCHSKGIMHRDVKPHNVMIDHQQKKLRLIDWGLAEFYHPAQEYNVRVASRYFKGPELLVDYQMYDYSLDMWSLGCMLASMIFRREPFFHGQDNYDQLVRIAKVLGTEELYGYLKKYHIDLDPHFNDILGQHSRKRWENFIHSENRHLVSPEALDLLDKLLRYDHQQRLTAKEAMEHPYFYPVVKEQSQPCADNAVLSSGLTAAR

Structure (SMILES) | IC50 [µM]
O=c1cc(-c2ccc3c(c2)OCCO3)[nH]c2c(-c3ccccc3)cnn12 | ≤ 10
Cc1nn2c(=O)cc(-c3ccc4c(c3)CCO4)[nH]c2c1-c1ccccc1 | ≤ 10
Cc1nn2c(=O)cc(-c3ccc(C(F)(F)F)cc3)[nH]c2c1Cc1ccc(Cl)cc1 | ≥ 10
COc1ccc(-c2cc(=O)n3ncc(-c4ccc(F)cc4)c3[nH]2)cc1 | ≤ 10
Cc1nn2c(=O)cc(-c3ccc4c(c3)OCCO4)[nH]c2c1-c1cccnc1 | ≤ 10
COC(=O)c1ccc(-c2cc(=O)n3nc(C)c(Cc4ccc(Cl)cc4)c3[nH]2)cc1 | ≥ 10
COc1ccc(-c2cc(=O)n3ncc(-c4ccccn4)c3[nH]2)cc1 | ≤ 10
O=c1cc(-c2ccc3c(c2)OCCO3)[nH]c2c(-c3ccccn3)cnn12 | ≤ 10
COc1cccc(-c2cc(=O)n3nc(C)c(Cc4ccc(Cl)cc4)c3[nH]2)c1 | ≥ 10
COc1ccc(-c2cc(=O)n3nc(C)c(Cc4ccccc4)c3[nH]2)cc1OC | ≥ 10
COc1ccc(-c2cc(=O)n3nc(C)c(Cc4ccc(Cl)cc4)c3[nH]2)cc1OC | ≥ 10
